Reference: ChEMBL document CHEMBL4002630, “The design and synthesis of novel spirocyclic heterocyclic sulfone ROMK inhibitors as diuretics” (Bioorg Med Chem Lett, 2017)

Columns and labels:
[1] = molecular target: T1, ATP-sensitive inward rectifier potassium channel 1 (Homo sapiens, UniProt P48048); experiment: Inhibition of human ROMK expressed in HEK293 cells after 30 mins by thallium flux assay; assay type: cell-based
T1 sequence (P48048 whole entry): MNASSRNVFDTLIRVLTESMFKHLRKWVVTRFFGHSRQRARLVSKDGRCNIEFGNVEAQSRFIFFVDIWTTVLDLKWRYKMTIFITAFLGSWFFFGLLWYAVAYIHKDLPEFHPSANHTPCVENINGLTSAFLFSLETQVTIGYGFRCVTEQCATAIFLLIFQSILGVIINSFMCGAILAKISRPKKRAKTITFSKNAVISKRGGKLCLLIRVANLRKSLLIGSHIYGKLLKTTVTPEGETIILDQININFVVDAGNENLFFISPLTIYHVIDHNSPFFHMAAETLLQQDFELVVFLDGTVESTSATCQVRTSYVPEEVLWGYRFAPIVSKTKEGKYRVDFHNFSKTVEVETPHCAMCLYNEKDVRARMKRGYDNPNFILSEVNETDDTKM

[2] = molecular target: T2, Voltage-gated inwardly rectifying potassium channel KCNH2 (Homo sapiens, UniProt Q12809)
T2 sequence (Q12809 whole entry): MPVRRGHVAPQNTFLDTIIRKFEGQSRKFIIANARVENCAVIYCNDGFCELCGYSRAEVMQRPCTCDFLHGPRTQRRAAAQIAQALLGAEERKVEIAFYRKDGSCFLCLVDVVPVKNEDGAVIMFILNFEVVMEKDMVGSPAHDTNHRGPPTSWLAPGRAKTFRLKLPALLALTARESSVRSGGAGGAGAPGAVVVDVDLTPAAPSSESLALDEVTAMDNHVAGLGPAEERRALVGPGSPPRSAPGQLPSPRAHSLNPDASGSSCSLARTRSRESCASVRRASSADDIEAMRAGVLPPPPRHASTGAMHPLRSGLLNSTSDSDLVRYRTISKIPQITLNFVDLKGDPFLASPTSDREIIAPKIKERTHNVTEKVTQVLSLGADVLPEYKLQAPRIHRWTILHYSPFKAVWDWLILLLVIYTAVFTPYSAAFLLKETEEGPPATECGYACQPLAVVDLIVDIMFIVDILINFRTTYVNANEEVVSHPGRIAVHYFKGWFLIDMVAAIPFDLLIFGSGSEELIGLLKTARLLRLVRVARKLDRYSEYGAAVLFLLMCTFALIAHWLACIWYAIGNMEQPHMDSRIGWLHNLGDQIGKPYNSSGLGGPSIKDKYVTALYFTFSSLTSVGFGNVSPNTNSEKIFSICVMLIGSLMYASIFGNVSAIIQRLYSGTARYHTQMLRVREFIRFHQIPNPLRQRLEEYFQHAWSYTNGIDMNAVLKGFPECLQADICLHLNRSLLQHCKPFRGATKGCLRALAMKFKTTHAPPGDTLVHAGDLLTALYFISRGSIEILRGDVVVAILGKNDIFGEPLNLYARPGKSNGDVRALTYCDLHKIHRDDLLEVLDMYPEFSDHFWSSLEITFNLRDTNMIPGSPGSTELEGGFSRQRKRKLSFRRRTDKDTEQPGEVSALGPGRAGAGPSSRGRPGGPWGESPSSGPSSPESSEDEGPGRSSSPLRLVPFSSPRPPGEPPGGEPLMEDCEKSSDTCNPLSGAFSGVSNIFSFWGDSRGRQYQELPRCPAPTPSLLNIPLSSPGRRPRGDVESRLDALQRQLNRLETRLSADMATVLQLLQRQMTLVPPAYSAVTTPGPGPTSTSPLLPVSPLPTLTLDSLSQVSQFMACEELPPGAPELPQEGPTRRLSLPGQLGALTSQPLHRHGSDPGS

Homo sapiens [3] = species on record: Homo sapiens; experiment: Selectivity ratio of IC50 for human ERG expressed in HEK293 cells to IC50 for human ROMK expressed in HEK293 cells; assay type: cell-based
Rattus norvegicus [4] = species on record: Rattus norvegicus; conditions: in vivo, iv, 0.5 mg/kg
Rattus norvegicus [5] = species on record: Rattus norvegicus; conditions: in vivo, po, 1 mg/kg
in vivo [6] = conditions: rat, iv, 0.5 mg/kg
in vivo [7] = conditions: rat
in vivo [8] = conditions: rat, po, 1 mg/kg
in vivo [9] = conditions: rat, po, 1 mg/kg; remark: listed apart in the source
Rattus norvegicus [10] = experiment: Antihypertensive activity in rat spontaneous hypertensive model assessed as change in systolic blood pressure at 25 mg/kg, po measured after 3 days; assay type: functional
[11] = molecular target: T1, ATP-sensitive inward rectifier potassium channel 1; experiment: Inhibition of human ROMK expressed in CHO cells by electrophysiology method; assay type: cell-based
Rattus norvegicus [12] = experiment: Antihypertensive activity in rat spontaneous hypertensive model assessed as change in systolic blood pressure at 3 mg/kg, po measured after 3 days; assay type: functional
[13] = Drug uptake in plasma of rat spontaneous hypertensive model at 3 mg/kg, po measured after 3 days; assay type: ADME, organism-based; conditions: spontaneously hypertensive rat
[14] = molecular target: T3, ATP-sensitive inward rectifier potassium channel 1 (Rattus norvegicus, UniProt P35560); experiment: Inhibition of rat ROMK expressed in HEK293 cells after 30 mins by thallium flux assay; assay type: cell-based
T3 sequence (P35560 whole entry): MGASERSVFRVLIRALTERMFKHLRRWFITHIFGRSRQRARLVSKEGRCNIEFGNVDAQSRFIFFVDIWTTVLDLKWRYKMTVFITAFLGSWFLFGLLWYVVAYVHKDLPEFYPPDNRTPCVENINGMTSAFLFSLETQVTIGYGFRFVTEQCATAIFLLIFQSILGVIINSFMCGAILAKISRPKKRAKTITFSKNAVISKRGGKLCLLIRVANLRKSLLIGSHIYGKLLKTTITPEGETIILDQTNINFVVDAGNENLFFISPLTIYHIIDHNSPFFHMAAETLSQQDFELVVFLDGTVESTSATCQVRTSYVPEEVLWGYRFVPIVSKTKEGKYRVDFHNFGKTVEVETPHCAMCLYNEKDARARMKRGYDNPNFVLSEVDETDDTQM

Canis familiaris = experiment: AUC (0 to t) in dog at 0.5 mg/kg, iv; assay type: ADME, organism-based, Canis lupus familiaris; conditions: in vivo
[15] = Half life in dog at 0.5 mg/kg, iv; assay type: ADME, organism-based, Canis lupus familiaris; conditions: in vivo
[16] = Volume of distribution at steady state in dog at 0.5 mg/kg, iv; assay type: ADME, organism-based, Canis lupus familiaris; conditions: in vivo, read-out: Vdss
[17] = molecular target: T2, Voltage-gated inwardly rectifying potassium channel KCNH2; experiment: Inhibition of human ERG by electrophysiology method
Homo sapiens [18] = species on record: Homo sapiens; experiment: Selectivity ratio of IC50 for human ERG to IC50 for human ROMK expressed in CHO cells by electrophysiology method; assay type: cell-based
[19] = AUC (0 to t) in dog at 1 mg/kg, po; assay type: ADME, organism-based, Canis lupus familiaris; conditions: in vivo
[20] = Half life in dog at 1 mg/kg, po or 0.5 mg/kg, iv; assay type: ADME, organism-based, Canis lupus familiaris; conditions: in vivo
[21] = Clearance in dog at 1 mg/kg, po or 0.5 mg/kg, iv; assay type: ADME, organism-based, Canis lupus familiaris; conditions: in vivo
[22] = Volume of distribution at steady state in dog at 1 mg/kg, po or 0.5 mg/kg, iv; assay type: ADME, organism-based, Canis lupus familiaris; conditions: in vivo, read-out: Vdss
[23] = Oral bioavailability in dog at 1 mg/kg; assay type: ADME, organism-based, Canis lupus familiaris; conditions: in vivo
Rhesus monkey = experiment: AUC (0 to t) in rhesus monkey at 0.5 mg/kg, iv; assay type: ADME, organism-based, Macaca mulatta; conditions: in vivo
[24] = Half life in rhesus monkey at 0.5 mg/kg, iv; assay type: ADME, organism-based, Macaca mulatta; conditions: in vivo
[25] = Volume of distribution at steady state in rhesus monkey at 0.5 mg/kg, iv; assay type: ADME, organism-based, Macaca mulatta; conditions: in vivo, read-out: Vdss
[26] = Drug excretion in urine of rat spontaneous hypertensive model at 3 mg/kg, po measured after 4 hrs; assay type: ADME, organism-based; conditions: spontaneously hypertensive rat, read-out: Drug excretion
[27] = Drug excretion in urine of rat spontaneous hypertensive model at 3 mg/kg, po measured after 24 hrs; assay type: ADME, organism-based; conditions: spontaneously hypertensive rat, read-out: Drug excretion

Cc1c([C@@H](O)CN2CCC3(CC2)CCN(c2ccc(C(C)(C)O)nc2)C3)ccc2c1COC2=O
IC50 ([1]; hek293): Not Active
IC50 [2]: 29000 nM

CSc1ccc(N2CCC3(CCN(C[C@H](O)c4ccc5c(c4C)COC5=O)CC3)C2)cn1
IC50 ([1]; read-out: IC50): 901 nM

Cc1c([C@@H](O)CN2CCC3(CC2)CCN(c2ccc(C#N)nc2)C3)ccc2c1COC2=O
Ratio IC50 (Homo sapiens [3]): 13
IC50 [2]: 1200 nM

Cc1nc(N2CCC3(CCN(C[C@H](O)c4ccc5c(c4C)COC5=O)CC3)C2)ccc1S(C)(=O)=O
Ratio IC50 (Homo sapiens [3]): 101
IC50 [2]: 7900 nM

Cc1c([C@@H](O)CN2CCC3(CC2)CCN(c2cncc(C#N)c2)C3)ccc2c1COC2=O
IC50 ([1]; read-out: IC50): 10 nM

Cc1c([C@@H](O)CN2CCC3(CC2)CCN(c2ccc(C#N)cn2)C3)ccc2c1COC2=O
clearance (Rattus norvegicus [4]): 19.3 mL/min/kg
AUC/dose (Rattus norvegicus [5]): 2 µM·kg·h/mg
Vd (in vivo [6]): 4.7 L/kg
half-life (in vivo [7]): 3 h
bioavailability (in vivo [8]): 100%
fraction unbound (in vivo [9]): 0.27

NS(=O)(=O)c1cc2c(cc1Cl)NCNS2(=O)=O [HYDROCHLOROTHIAZIDE]
Activity (Rattus norvegicus [10]): -10.5 mmHg

Cc1c([C@@H](O)CN2CCC3(CC2)CCN(c2ccc(S(C)(=O)=O)cn2)C3)ccc2c1COC2=O
IC50 [11]: 29 nM
Activity (Rattus norvegicus [12]): -20.3 mmHg
concentration at 72 h [13]: 162 nM
IC50 [14]: 60 nM
AUCt (Canis familiaris): 0.66 µM·h
half-life [15]: 1.7 h
Vd [16]: 6.9 L/kg
clearance (Rattus norvegicus [4]): 24 mL/min/kg
AUC/dose (Rattus norvegicus [5]): 0.7 µM·kg·h/mg
Vd (in vivo [6]): 3.5 L/kg
half-life (in vivo [7]): 1.8 h
bioavailability (in vivo [8]): 51%

COc1ccc(N2CCC3(CCN(C[C@H](O)c4ccc5c(c4C)COC5=O)CC3)C2)cn1
IC50 ([1]; read-out: IC50): 1000 nM
Ratio IC50 (Homo sapiens [3]): 303
IC50 [2]: 3300 nM

Cc1c([C@@H](O)CN2CCC3(CC2)CCN(c2cnc(S(C)(=O)=O)cn2)C3)ccc2c1COC2=O
Ratio IC50 (Homo sapiens [3]): 202
IC50 [11]: 37 nM
IC50 [17]: 22700 nM
Ratio IC50 (Homo sapiens [18]): 614
Activity (Rattus norvegicus [12]): -19.9 mmHg
concentration at 72 h [13]: 78 nM
IC50 [14]: 40 nM
AUC(0-t) [19]: 0.75 µM·h
half-life [20]: 8.6 h
clearance [21]: 42 mL/min/kg
Vd [22]: 17.8 L/kg
bioavailability [23]: 67%
AUCt (Rhesus monkey): 0.61 µM·h
half-life [24]: 1.8 h
Vd [25]: 7 L/kg
IC50 [2]: 8900 nM
clearance (Rattus norvegicus [4]): 37 mL/min/kg
AUC/dose (Rattus norvegicus [5]): 0.4 µM·kg·h/mg
Vd (in vivo [6]): 5.6 L/kg
half-life (in vivo [7]): 2.1 h
bioavailability (in vivo [8]): 37%

Cc1c([C@@H](O)CN2CCC3(CC2)CCN(c2ccc([S+](C)[O-])nc2)C3)ccc2c1COC2=O (some centres undefined)
IC50 ([1]; read-out: IC50): 6400 nM

Cc1c([C@@H](O)CN2CCC3(CC2)CC(=O)N(c2ccc(S(C)(=O)=O)nc2)C3)ccc2c1COC2=O
IC50 [2]: > 60000 nM

Cc1c([C@@H](O)CN2CCC3(CC2)CC(=O)N(c2ccc(C#N)cn2)C3)ccc2c1COC2=O
IC50 ([1]; read-out: IC50): 10 nM
Ratio IC50 (Homo sapiens [3]): 180
IC50 [2]: 1800 nM

Cc1c([C@@H](O)CN2CCC3(CC2)CCN(c2ccc(S(C)(=O)=O)nc2)C3)ccc2c1COC2=O
IC50 ([1]; read-out: IC50): 226 nM
IC50 [11]: 50 nM
Activity (Rattus norvegicus [12]): 0.1 mmHg
concentration at 72 h [13]: 390 nM
concentration at 4 h [26]: 26600 nM
concentration at 24 h [27]: 21200 nM
IC50 [14]: 240 nM
clearance (Rattus norvegicus [4]): 23 mL/min/kg
AUC/dose (Rattus norvegicus [5]): 0.7 µM·kg·h/mg
Vd (in vivo [6]): 2.8 L/kg
half-life (in vivo [7]): 2 h
bioavailability (in vivo [8]): 96%

Cc1c([C@@H](O)CN2CCC3(CC2)CC(=O)N(c2ccc(S(C)(=O)=O)cn2)C3)ccc2c1COC2=O
Ratio IC50 (Homo sapiens [3]): 328
IC50 [11]: 43 nM
IC50 [17]: 24000 nM
Ratio IC50 (Homo sapiens [18]): 558
Activity (Rattus norvegicus [12]): -15.5 mmHg
concentration at 72 h [13]: 220 nM
IC50 [14]: 40 nM
IC50 [2]: 17400 nM
clearance (Rattus norvegicus [4]): 34 mL/min/kg
AUC/dose (Rattus norvegicus [5]): 0.5 µM·kg·h/mg
Vd (in vivo [6]): 4.3 L/kg
half-life (in vivo [7]): 2.1 h
bioavailability (in vivo [8]): 48%

Cc1c([C@@H](O)CN2CCC3(CC2)CC(=O)N(c2cncc(C#N)c2)C3)ccc2c1COC2=O
IC50 ([1]; read-out: IC50): 10 nM
Ratio IC50 (Homo sapiens [3]): 180
IC50 [2]: 1800 nM

Cc1c([C@@H](O)CN2CCC3(CC2)CC(=O)N(c2cnc(S(C)(=O)=O)cn2)C3)ccc2c1COC2=O
IC50 [11]: 34 nM
Activity (Rattus norvegicus [12]): -16 mmHg
concentration at 72 h [13]: 232 nM
IC50 [14]: 60 nM
clearance (Rattus norvegicus [4]): 30 mL/min/kg
AUC/dose (Rattus norvegicus [5]): 0.5 µM·kg·h/mg
Vd (in vivo [6]): 3.8 L/kg
half-life (in vivo [7]): 2.4 h
bioavailability (in vivo [8]): 46%

Cc1c([C@@H](O)CN2CCC3(CC2)CCN(c2ccc(C#N)cn2)CC3)ccc2c1COC2=O
IC50 ([1]; read-out: IC50): 47 nM
